# Results published in publication doi:10.1101/2024.04.15.589505v1 (biorxiv, 2024).
# Columns and labels:
# [1] = molecular target: T1, DENV2 protease (DENV2pro; DENV serotype 2 NS2B-NS3 protease construct, GGGGSGGGG-linked) (Dengue virus 2 Thailand/16681/84, UniProt P29990); assay: biochemical; type: binding
# [2] = molecular target: T1, DENV2 protease (DENV2pro; DENV serotype 2 NS2B-NS3 protease construct, GGGGSGGGG-linked); assay: biochemical
# T1 sequence (P29990 1394-1440 limits assumed): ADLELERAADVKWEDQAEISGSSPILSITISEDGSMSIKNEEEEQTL
# T1 sequence (P29990 1476-1660 limits assumed): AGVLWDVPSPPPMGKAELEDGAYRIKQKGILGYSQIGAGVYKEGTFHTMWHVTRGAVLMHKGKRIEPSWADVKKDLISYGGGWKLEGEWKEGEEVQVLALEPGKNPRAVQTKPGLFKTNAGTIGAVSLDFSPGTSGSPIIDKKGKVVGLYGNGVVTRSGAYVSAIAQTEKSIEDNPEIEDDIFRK
SMILES,Kd [1] [µM],IC50 [2] [µM]
NC(=O)c1ccc(CNC(=O)[C@@H](NC(=O)c2ccc(-c3cccs3)s2)c2ccc(OCc3ccccc3)cc2)cc1 [compound 23],2.4 ± 0.6,
CCCCCC(=O)N[C@H](C(=O)NCc1ccc(NC(=N)N)cc1)c1ccc(OCc2ccccc2)cc1 [compound 3],,17.6 ± 2.15
NC(=O)c1cccc(NC(=O)[C@@H](NC(=O)c2ccc(Oc3ccccc3)cc2)c2ccc(OCc3ccccc3)cc2)c1 [compound 4],,5.37 ± 0.73
N=C(N)NCCC[C@H](NC(=O)[C@H](CCCNC(=N)N)NC(=O)c1ccccc1)B(O)O [compound 1],,0.68 ± 0.01
CC(C)(C)NC(=O)C(=O)/C=C/c1c[nH]c2ccccc12 [compound 5],,37.1 ± 1.29
